Data reported in ChEMBL document CHEMBL4130363, “Synthesis and pharmacological evaluation of benzamide derivatives as potent and selective sigma-1 protein ligands” (Eur J Med Chem, 2017).

Columns and labels:
[1] = molecular target: Sigma intracellular receptor 2 (Homo sapiens, UniProt Q5BJF2); assay: Displacement of [3H]-DTG from S2R in human Jurkat cell membranes after 1 hr in presence of (+)-pentazocine by liquid scintillation counting
[2] = test system: SH-SY5Y; assay: Cytotoxicity against human SH-SY5Y cells assessed as reduction in cell viability after 72 hrs by MTT assay; type: cell-based
[3] = molecular target: Sigma non-opioid intracellular receptor 1 (Homo sapiens, UniProt Q99720); assay: Displacement of [3H](+)-pentazocine from S1R in human Jurkat cell membranes after 2 hrs by liquid scintillation counting
Chain of Sigma non-opioid intracellular receptor 1 (Q99720 whole entry): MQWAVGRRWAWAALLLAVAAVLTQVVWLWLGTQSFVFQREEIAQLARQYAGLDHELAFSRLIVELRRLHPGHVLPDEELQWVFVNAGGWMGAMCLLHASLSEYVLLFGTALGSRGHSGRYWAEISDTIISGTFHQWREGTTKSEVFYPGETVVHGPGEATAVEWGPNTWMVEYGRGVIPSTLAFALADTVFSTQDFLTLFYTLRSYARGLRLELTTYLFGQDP

[4] = test system: S1R (sigma-1 receptor); assay: Selectivity index, ratio of IC50 for human SH-SY5Y cells to Ki for S1R in human Jurkat cell membranes; type: toxicity, cell-based

Chain of Sigma intracellular receptor 2 (Q5BJF2 whole entry): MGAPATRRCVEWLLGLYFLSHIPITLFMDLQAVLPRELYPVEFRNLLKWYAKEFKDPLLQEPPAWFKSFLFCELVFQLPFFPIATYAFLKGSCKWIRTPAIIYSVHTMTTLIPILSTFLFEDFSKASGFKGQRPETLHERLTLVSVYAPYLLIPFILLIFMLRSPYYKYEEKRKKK

SMILES	Ki [1] [nM]	IC50 [2] [nM]	Ki [3] [nM]	selectivity ratio [4]
O=C(NCCCN1CCOCC1)c1ccc(Cl)cc1 [EPROBEMIDE]	> 200	> 100000	> 100	–
CN(CCCNC(=O)c1ccc(F)cc1)Cc1ccccc1	–	> 100000	–	> 5000
CN1CCN(CCNC(=O)c2ccc(Cl)cc2)CC1	> 200	> 100000	> 100	–
O=C(NCCCN1Cc2ccccc2C1)c1ccc(Cl)cc1	350	> 100000	19	> 5260
CN(CCNC(=O)c1cccc(Cl)c1Cl)Cc1ccccc1	110	> 100000	6.5	> 15400
CN(CCCNC(=O)c1cc(Cl)cc(Cl)c1)Cc1ccccc1	–	60000	–	2610
O=C(NCCN1CCOCC1)c1ccc(Cl)cc1 [MOCLOBEMIDE]	> 200	> 100000	> 100	–
CN(CCCNC(=O)c1cccc(Cl)c1)Cc1ccccc1	–	> 100000	–	> 10000
O=C(NCCN1CCCC1)c1ccc(Cl)cc1	> 200	> 100000	> 100	–
CN(CCCNC(=O)c1ccc(Br)cc1F)Cc1ccccc1	200	> 100000	–	> 34500
